Legend:
Lipophilicity (logD7.4) = assay type: physicochemical
Method: Lipophilicity (logD7.4): A total of 30 μL of a 20 mmol/L stock solution of RXC004 was added to a vial containing 1.5 mL of pH7.4 phosphate buffer saturated octanol and 1.5 mL of octanol-saturated pH7.4 phosphate buffer, shaken and centrifuged to ensure phase separation. logD7.4 was calculated as the logarithm of the ratio of the concentration of RXC004 (measured by LC-UV in octanol vs. buffer phase).

Plasma protein binding = assay type: in vitro ADME
Method: Plasma protein binding: Mouse, rat, dog, and human plasmas were obtained from TCS Biosciences Ltd and Sera Laboratories Ltd. A total of 20 μmol/L RXC004 in 10% plasma diluted with phosphate buffer was dialyzed against phosphate buffer for 18 hours at 37°C. The concentration of RXC004 each side of the dialysis plate was determined by LC/MS-MS. Results were corrected to 100% plasma.

Hepatocyte stability = assay type: in vitro ADME; conditions: Human, 1 μmol/L
Method: (§1) Metabolic stability: liver microsomes and hepatocytes from human, mouse (CD1), rat (Sprague Dawley) and dog (Beagle) were obtained from Invitrogen. RXC004 (1 μmol/L) was incubated at 37°C with microsomes (0.5 mg · mL^−1) or hepatocytes (0.5 × 10^6 cells · mL^−1). Aliquots were removed at 0–45 minutes and RXC004 concentrations determined by LC/MS-MS analysis. Half-life (T1/2) and intrinsic clearance (CLint) were calculated as described in ref. [18].

Microsomal stability = assay type: in vitro ADME; conditions: Human, 1 μmol/L
Method: as §1

[1] = test system: cell lines with RNF43 mutations and RSPO3 fusions; assay: Proliferation, 5 days, ATPLite; assay type: cell-based, human; conditions: concentration-series
Method: (§2) Cells were treated with a concentration-series of RXC004 for 5 days and proliferation measured using ATPLite 1-Step Reagent (Perkin Elmer #6016731). Data were normalized to DMSO-treated controls and IC50 values determined. Colorectal cell lines used were: WiDR (APC-E853*/T1556fs*3), HCT116 (β-cateninΔSer45; RNF43-R117fs*41), JVE-109 (RNF43-V211fs*47/G659fs*41), SNU-1411 (PRPTK-RSPO-3 fusion). Pancreatic cell lines were: CAPAN-2 (RNF43-R330fs*89), AsPC1 (RNF43-S720*), and HPAF-II (RNF43-E174*). Cell lines were from ATCC, except for SNU-1411 (Korean Cell Line Bank) and cultured for no more than 20 passages. Cells were routinely tested for Mycoplasma by the MycoAlert test (Lonza) and authenticated using short tandem repeat fingerprinting.

[2] = test system: cell lines with mutations in downstream Wnt signaling; assay: Proliferation, 5 days, ATPLite; assay type: cell-based, human; conditions: concentration-series
Method: as §2

HCT116 cells = assay: Wnt-responsive gene expression (qPCR); assay type: cell-based, human
From the text: (§3) The expression of nine potential Wnt-responsive genes was screened across cell lines by treatment with RXC004 (10 nmol/L) or DMSO (0.1%) for 3 days. RNA was extracted (Aurum RNA isolation kit, Bio-Rad #372-6820) and gene expression assessed by Taqman qPCR relative to appropriate housekeeping genes on the Bio-Rad CFX real-time system.
(§4) For concentration–response effects on gene expression, Single-Shot Cell Lysis kit (Bio-Rad #172-5080) was used for RNA extraction, data were normalized to DMSO-treated controls, and IC50 values determined. For cell-cycle analysis, the cancer cell line panel was treated with RXC004 (100 nmol/L) or DMSO (0.1%) for 3 days. Cell-cycle profiles were determined by staining with propidium iodide (Thermo Fisher Scientific #P3566) and phospho-Ser10-Histone-H3 (AlexaFluor-647, BioLegend #650806), and quantified using an Agilent Novocyte-3000 flow cytometer. For in vitro growth curve analysis, HPAF-II and SNU-1411 cells were seeded in 96-well plates at 2,000 cells/well and imaged on the IncuCyte (Sartorius) at 10× magnification with 4 fields of view per well. Total cell object count over time was calculated using the Adherent Cell-by-Cell analysis module.

WiDR cells = assay: Wnt-responsive gene expression (qPCR); assay type: cell-based, human
From the text: as §3, §4

[3] = test system: cell lines with RNF43 LoF mutations and RSPO3 fusions; assay: Wnt-responsive gene expression (qPCR); assay type: cell-based, human; conditions: 10 nmol/L, 3 days
From the text: as §3, §4

B16F10 tumors = assay: B16F10/C57BL/6 syngeneic model; assay type: in vivo, mouse (C57BL/6)
Method: B16F10/C57BL/6 syngeneic model was performed at Axis Bioservices. Mouse B16F10 cells (2 × 10^5) were subcutaneously implanted in flanks of the immunocompetent male C57BL/6 mice. Treatment was initiated at day 3, once tumors were palpable with RXC004 being dosed orally as indicated. Anti-programmed cell death protein-1 (PD-1; RMP1-14, BioXcell) or isotype control was dosed at 100 μg per dose intraperitoneal, twice weekly. Anti-CTLA-4 antibody (BioXCell BP0131) or isotype control was dosed intraperitoneally every 3 days at 100 μg per dose. Separate experiments were performed for tumor volume and flow cytometry analysis. Tumor volume was assessed in each animal and/or group until prespecified termination conditions and/or study endpoint were reached. For flow cytometry, tumors were resected at day 19, 2 hours after final dose, weighed and digested into a single-cell suspension using collagenase (Liberase, Roche) and DNAase and passed through a strainer prior to flow cytometry analysis on FACS Canto II apparatus using Flow JO software. Single and fluorescence minus one stains were used for compensation setup and gating controls respectively. A myeloid analysis panel included Zombie viability dye (BioLegend #423106), CD11b (BioLegend #101228), CD45, Ly6C, and Ly6G (BD Biosciences #563891, #562727, #551460). Myeloid myeloid-derived suppressor cells (MDSC) were gated as CD45^+CD11b^+ Ly6G-Ly6C^high and polymorphonuclear MDSCs were gated as CD45^+CD11b^+ Ly6G^+Ly6C^med ([21]). For gene expression analysis, tumors were snap frozen, total RNA was extracted and mRNA expression levels for various genes analyzed using the Nanostring nCounter Mouse PanCancer IO360 Codeset.

Cc1c(-c2ccnc(C(F)(F)F)c2)ncn1CC(=O)Nc1ccc(-c2cnccn2)cn1 [RXC004, 2-[5-methyl-4-[2-(trifluoromethyl)-4-pyridyl]imidazol-1-yl]-N-(5-pyrazin-2-yl-2-pyridyl)acetamide]
logD (Lipophilicity (logD7.4); octanol/phosphate buffer, pH 7.4, pH 7.4, octanol/phosphate buffer, read-out: Measured log D7.4): 2.4
Measured log D7.4 (Lipophilicity (logD7.4); pH 7.4, octanol/phosphate buffer): 2.44
Plasma protein binding (% free) (Plasma protein binding; Dog): 2.5 % free
Plasma protein binding (% free) (Plasma protein binding; Human): 4.2 % free
Plasma protein binding (% free) (Plasma protein binding; Mouse): 7.5 % free
Plasma protein binding (% free) (Plasma protein binding; Rat): 5.0 % free
Hepatocyte stability: CLint (Hepatocyte stability): <3.0 μL minute^−^1 · 10^6 cells^−^1
Microsomal stability: CLint (Microsomal stability): 6.0 μL minute^−^1 · mg^−^1
proliferation [1]: inhibited proliferation
proliferation [2]: had no effect
Wnt pathway target expression (HCT116 cells; HCT116, 10 nmol/L, 3 days): Minimal effects
IC50 (HCT116 cells; Homo sapiens, HCT-116, HCT116, read-out: IC50, c-Myc mRNA expression): > 10 µM
IC50 (WiDR cells; Homo sapiens, WiDr, read-out: IC50, c-Myc mRNA expression): > 10 µM
Wnt pathway target expression (WiDR cells; WiDR, 10 nmol/L, 3 days): Minimal effects
mRNA expression of Wnt pathway targets Axin2, RNF43, c-Myc, CD44, MMP7 [3]: downregulated mRNA expression of Wnt pathway targets
mucin mRNA [3]: marked increase in mucin mRNA
survival hazard ratio (B16F10 tumors; 5 mg/kg QD versus vehicle, P <0.0001, Log-rank test): 0.27
survival (B16F10 tumors; 5 mg/kg once daily): significantly increased survival
tumor expression of CXCL9 (B16F10 tumors; 5 mg/kg once daily): increased tumor expression of the chemokine CXCL9
tumor-associated CD45+ immune cells (Nanostring) (B16F10 tumors; 5 mg/kg once daily): significantly increased the overall tumor-associated CD45^+ immune cells
circulating MDSC (B16F10 tumors; 5 mg/kg once daily, day 19): concomitant increase in circulating MDSC
tumor-associated MDSCs (B16F10 tumors; 5 mg/kg once daily, day 19): significantly reduced tumor-associated MDSCs
tumor volume / tumor growth (B16F10 tumors; RXC004 5 mg/kg once daily, anti-PD-1 100 μg per dose twice a week): significant tumor growth inhibition
